Source: US9144251B2, “High-potency sweetener composition with mineral and compositions sweetened therewith” (The Coca-Cola Company, priority 2005, dated 2015)

Experiment: Sensory evaluation of sweetness linger and sugar-like taste by a panel of experts (Example Sets G and H)
Type: in vivo
Set-up: key: 0=no sweetness linger; 1 very slight sweetness linger; 2=slight sweetness linger; 3 moderate sweetness linger; 4=moderately high sweetness linger; 5=high sweetness linger
Conditions: scale 0-5; for Sweetness Linger rating (defined anchors of the scale): sucrose, 500 ppm of REBA control sample
Procedure: Sensory evaluation of the samples prepared in Example Set G was carried out under the following protocol, similar to that described hereinabove. In this test protocol, none of the samples were swallowed. All samples were expectorated and the mouth was rinsed with water after the tasting. Immediately upon sensing maximal sweetness, the sample was expectorated, the mouth was rinsed with water and the rate of sweetness decay (“Sweetness Linger”) was measured, where attention was focused on the sweetness 3-4 min after the water rinse. After sample tasting was complete, a salty oyster cracker was chewed followed by a water rinse, and at least 5 minutes followed before tasting the next sample. The sweetness linger was rated by a panel of experts in the sensory evaluation of foods and beverages using the following scale: 0=no sweetness linger, 1 very slight sweetness linger, 2=slight sweetness linger, 3 moderate sweetness linger, 4=moderately high sweetness linger, 5=high sweetness linger.
The “Sweetness Linger” rating for sucrose observed by this protocol is defined as 0. The Sweetness Linger of a 500 ppm of REBA control sample is defined as 5. Experimental samples were tasted by the same protocol, always allowing sufficient time between samples to ensure re-equilibration of the sensory system. Re-tasting of control samples during the course of the experiment was allowed and encouraged.
The comparison taste test was performed between two controls and addition of sweet taste improving additive on the onset and/or sweetness linger.
Sweet taste improving compositions were combined with a REBA solution to determine their effect on sweetness linger. Screening of the initial sample, or further dilutions, allowed identification of concentrations which were just above-threshold, herein defined as “near-threshold concentrations.” The near-threshold additive concentrations, a 6- to 100-fold higher higher additive concentration (depending on the off-taste intensity), and a mid-level additive concentration (halfway between the near-threshold and higher additive concentration) were evaluated to determine the effect on sweetness linger of a REBA solution.
Formulations of a 500 ppm REBA in a phosphoric acid solution (75%) at a pH of 2.5 with phosphoric acid or a pH of 3.1 with citric acid and potassium citrate were prepared prior to the addition of the additives at the three levels of concentration.
Sensory evaluation using the protocol described in Example Set G then was used to evaluate the sweetness linger of the REBA solutions.

## OC[C@H]1O[C@@](CO)(O[C@H]2O[C@H](CO)[C@@H](O)[C@H](O)[C@H]2O)[C@@H](O)[C@@H]1O [sugar, sucrose]
8 g of sugar in 100 ml of citrate buffer
  sweetness linger rating, control sample: 0
10 g of sugar in 100 ml carbon treated water, phosphoric acid (75%) to pH 2.4-2.5
  sweetness linger rating, control sample: 0
  Sweetness Linger rating (defined anchors of the scale): 0

## rebaudioside A
400 ppm REBA in citric acid/potassium citrate composition equivalent to diet lemon-lime beverage, no additive
  sweetness linger rating, control sample: 5
500 ppm in carbon-treated water, phosphoric acid (75%) to pH 2.4-2.5, no additive
  sweetness linger rating, control sample: 5
  Sweetness Linger rating (defined anchors of the scale): 5
